From US7557102B2, “Pyrazolidine-1,2-dicarboxyldiphenylamide derivatives as coagulation factor Xa inhibitors for the treatment of thromboses” (Merck Patent GmbH, priority 2003, dated 2009) come the findings set out here.

For this assay, the target named is FXa (Homo sapiens, UniProt P00742). Briefly: Inhibition of factor Xa (Table 1, Pharmacological Data). The format is biochemical.
Chain of FXa (P00742 235-488 limits assumed): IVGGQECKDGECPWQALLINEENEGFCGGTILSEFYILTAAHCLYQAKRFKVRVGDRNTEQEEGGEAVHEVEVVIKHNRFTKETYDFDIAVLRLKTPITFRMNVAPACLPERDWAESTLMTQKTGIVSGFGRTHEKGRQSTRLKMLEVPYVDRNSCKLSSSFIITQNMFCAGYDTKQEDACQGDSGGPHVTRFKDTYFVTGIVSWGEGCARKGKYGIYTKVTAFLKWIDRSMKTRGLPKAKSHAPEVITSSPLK
Chain of FXa (P00742 41-179 limits assumed): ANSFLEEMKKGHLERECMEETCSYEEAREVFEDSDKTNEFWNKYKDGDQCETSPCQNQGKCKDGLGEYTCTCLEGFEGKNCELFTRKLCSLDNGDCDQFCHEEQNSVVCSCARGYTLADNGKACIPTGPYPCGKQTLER
In turn, `O=C(Nc1ccc(Br)cc1)N1CCCN1C(=O)Nc1ccc(-n2ccccc2=O)cc1` [Compound A3, 1-N-[(4-bromophenyl)]-2-N-{[4-(2-oxo-2H-pyridin-1-yl)phenyl]}pyrazolidine-1,2-dicarboxamide] gave an IC50 of 0.055 µM.
For the compound `C#Cc1ccc(NC(=O)N2CCCN2C(=O)Nc2ccc(N3CCOCC3=O)c(Cl)c2)cc1` [Compound A1, 1-N-[(4-Ethynylphenyl)]-2-N-{[3-chloro-4-(3-oxomorpholin-4-yl)phenyl]}-pyrazolidine-1,2-dicarboxamide], the concentration for half-maximal inhibition (IC50) is 0.075 µM.
`O=C1COCCN1c1ccc(NC(=O)N2CCCN2C(=O)Nc2ccc(Cl)cc2)cc1Cl` [Compound A2, 1-N-[(4-chlorophenyl)]-2-N-{[3-chloro-4-(3-oxomorpholin-4-yl)phenyl]}-pyrazolidine-1,2-dicarboxamide]: the IC50 was 0.12 µM.

Broadly, the IC50 is the midpoint of a concentration-inhibition curve. Low readings indicate greater potency, high ones weaker potency.
